Test results from patent US20250320496A1, “MODULATION OF ABCB11 GENE TRANSCRIPTION USING ANTISENSE OLIGONUCLEOTIDES TARGETING REGULATORY RNAS” (CAMP4 Therapeutics Corporation, priority 2022, published 2025).
Strand notation (5' to 3'): a small letter for the sugar, then the base; units joined by * are phosphorothioate-linked, units joined directly phosphodiester-linked; [ ] holds rarer units or linkages, { } end groups; capitals alone tell only the bases. e = 2'-O-(2-methoxyethyl) (MOE); {TEG} = Teg-GalNAc conjugate; [5mC] = 5-methylcytosine

Tests used:
human ABCB11 mRNA [1] = experiment: ASO treatment of primary human hepatocytes (PHH), ABCB11 mRNA by RT-qPCR normalized to B2M; type: cell-based; parameters: ABCB11 mRNA, dose titration: unit of the concentration uncertain; conditions: for ABCB11 mRNA expression, dose response: Day 4 after ASO treatment (FIG. 5A); for ABCB11 mRNA FC (5 μM ASO vs. UNT): primary human hepatocytes, normalized to untreated PHHs (UNT); for ABCB11 mRNA, dose titration: CO-3986 and CO-4529 tested at 2.5 (unit uncertain), 5 μM, and 10 μM
Method in brief: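 ABCB11 mRNA was quantified by Taqman RT-qPCR relative to B2M and expressed as fold over untreated cells. Cells were cryopreserved primary human hepatocytes given ASO in Matrigel-supplemented medium 4 h after plating, at 1.25, 2.5, 5 or 10 μM (5 μM for screening), and harvested after 72 hrs.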

CYP7A1 mRNA = experiment: ASO treatment of primary human hepatocytes (PHH), CYP7A1 mRNA by RT-qPCR normalized to B2M; type: cell-based; conditions: for CYP7A1 mRNA levels, dose response: PHHs, Day 4, relative to B2M (FIG. 5B); for expression of CYP7A1 mRNA, dose response: PHHs (FIG. 3B)
Protocol: Primary human hepatocytes (PHH) were thawed using Lonza Human Cryopreserved Hepatocyte Thawing Medium and plated in 96-well collagen-coated plates (5.5-6.0×10^4 cells per well). Four hours later, the media was replaced with sterile-filtered QualGro™ Hepatocyte Culture Medium (BioIVT) containing antibiotic supplement, 0.3 mg/ml Matrigel® matrix (Corning®), and ASO at the desired concentration (e.g., 1.25 μM, 2.5 μM, 5 μM, or 10 μM). […] Plates were frozen at-80° C. during cell lysis. After thawing, total RNA was isolated using the Qiagen RNEasy kit as instructed by manufacturer. cDNA (random-primed) was synthesized from 10 μl of RNA using the LifeTech High Capacity cDNA Reverse Transcription kit. 2 μl of cDNA was used for reverse transcription-quantitative PCR (RT-qPCR) analyses using standard Taqman” reagents from Applied Biosystems™ to measure ABCB11 and CYP7A1 gene expression. Gene expression data was normalized to the housekeeper gene, beta-2-microglobulin (B2M).
ASOs targeting ABCB11 regRNA enhance bile acid efflux in vitro. Levels of cholesterol 7 alpha-hydroxylase (CYP7A1) mRNA (or the enzymatic activity of its protein) can be used to track changes in bile acid synthesis in the liver since the CYP7A1 protein is the first and rate-limiting step in the conversion of cholesterol to bile acids (see, e.g., Chiang and Ferrel (2020) Liver Res. 4 (2): 47-63). […] Conversely, when bile acid levels reach high levels, this gene is actively down regulated. These changes are mediated by farnesoid X receptor (FXR), a sensor of bile acid levels, and the master regulator of intracellular bile acid concentrations. CYP7A1 mRNA can therefore be used as a surrogate for monitoring changes in hepatic bile acids in response to ASO treatment. Accordingly, an ASO that successfully increases ABCB11 expression would be expected to promote increased bile acid efflux, thus reducing bile acid levels in the cell. In a wild-type (non-disease) setting, this reduction promotes a compensatory increase in CYP7A1 to restore normal levels.

bile acids = experiment: Liver-humanized FRG knockout mice, liver and serum bile acids; type: in vivo, mouse
Protocol: (§1) In a first in vivo study, female liver-humanized FRG® (Fah^−/−; Rag2^−/−; Il2rg^−/−) knockout mice (Yecuris™) were used to assess the efficacy of the human ABCB11 regRNA-targeting ASOs CO-3986 and CO-4535 in the context of cholestasis. The mice were grouped evenly based on albumin and body weight.
A. First Study. Two groups of five mice were dosed with GalNAc3—CO-7378 (CO-3986 conjugated to GalNAc3) or GalNAc3—CO-7379 ([…]) respectively, control via subcutaneous (SC) injection on Days 0 and 7. One group of five mice was dosed with PBS control via SC injection on Days 0 and 7. A fourth group of five mice was treated with ursodeoxycholic acid (UDCA) via intraperitoneal (IP) injection on Days 14-21. […] On Day 21, the animals were euthanized for terminal harvest after fasting overnight and >350 μL of whole blood was processed to serum. 100 μL of whole blood was collected in the same manner as the previous bleeds, prior to euthanasia and final exsanguination. Harvested livers were perfused with cold PBS with the left lobe and remnant liver frozen separately after bile salt collection. A piece of the ileum tissue was removed and flushed with PBS and snap-frozen. The serum (two tubes for each animal, 15 μL and 25 μL, for each timepoint) was analyzed using LC-MS (Creative Proteomics) to assess bile acids and 7αC4 levels. The remaining samples collected were analyzed for total serum bile acid levels using a commercial kit.
(§2) B. Second Study. In a second in vivo study was conducted to assess the ability of CO-11202 (CO-12367 conjugated with GalNAc3). Mice were dosed with […] on Days 0 and 7 via SC injection. One group of five mice were dosed with PBS control via SC injection on Days 0 and 7. One group of five mice received 10 mg/kg of obeticholic acid (OCA) via oral gavage daily for 21 days. Fasting blood was collected from the mice on Days 0, 7, 14 and 21 (collection performed prior to any SC injections) and processed to serum to analyze bile acid levels. On Day 21, mice were euthanized and livers and ileum tissue harvested and processed as described above.
(§3) Frozen liver pieces were pulverized on dry ice and RNA extracted using TRIzol™ reagent. cDNA was generated and analyzed using qPCR to detect ABCB11 mRNA levels and other genes of interest as described above. Serum 7αC4 levels were detected using LC-MS (Creative Proteomics). Total serum bile acids were measured using the Total Bile Acid Fluorometric Assay Kit (Cell BioLabs). Liver bile acids were measured using the Total Bile Acid Fluorometric Assay Kit.

human ABCB11 mRNA [2] = experiment: Liver-humanized FRG knockout mice, human ABCB11 mRNA in liver by qPCR; type: in vivo
Protocol: as §1
A. First Study. Two groups of five mice were dosed with GalNAc3—CO-7378 (CO-3986 conjugated to GalNAc3) or GalNAc3—CO-7379 ([…]) respectively, control via subcutaneous (SC) injection on Days 0 and 7. One group of five mice was dosed with PBS control via SC injection on Days 0 and 7. […] The serum (two tubes for each animal, 15 μL and 25 μL, for each timepoint) was analyzed using LC-MS (Creative Proteomics) to assess bile acids and 7αC4 levels. The remaining samples collected were analyzed for total serum bile acid levels using a commercial kit. […]
as §3

bile acid efflux in PHHs = experiment: In vitro biliary clearance assay (B-CLEAR) in PHHs, d8-TCA by LC-MS; type: cell-based, human
Protocol: The ACCULIVER™ Human Biliary Clearance Kit (also known as the B-CLEAR® assay; BioIVT) was used to assess bile acid efflux in PHHs after ASO treatment. On Day 0, 4×10^5 cells were plated in 24-well collagen-coated plates and QualGro medium containing […] matrix and ASO was added 4 hrs. later. On Day 2, medium was refreshed. On Day 3, cells from some wells were harvested for RNA analysis using 350 μl Buffer RLT lysis buffer, and lysates frozen at −80° C. for later RNA extraction. On Day 4, cells in the remaining wells had medium refreshed. On Day 6, the assay was performed according to the manufacturer's instructions. Briefly, cells were conditioned with Plus or Minus Buffers provided with the assay for 10 minutes, followed by addition of deuterium-labelled sodium taurocholate (d8-TCA) for 10 mins. Cells were washed 3 times, and frozen after the final wash. Analysis of d8-TCA was performed using liquid chromatography-mass spectrometry (LC-MS) (BioIVT). Calculations of bile acid clearance were made from the resulting LC-MS data according to the manufacturer's instructions.

mouse Abcb11 mRNA = experiment: Liver-humanized FRG knockout mice, mouse Abcb11 mRNA in liver; type: in vivo; conditions: second study, liver-humanized FRG knockout mice (FIG. 15A)
Protocol: as §2, §3

[3] = PHHs treated for two days, collected Day 2 to Day 7, result on Day 4

Row | Substance | ABCB11 mRNA expression, dose response (human ABCB11 mRNA [1]; PHHs) | ABCB11 mRNA FC (5 μM ASO vs. UNT) (human ABCB11 mRNA [1]) | CYP7A1 mRNA levels, dose response (CYP7A1 mRNA) | ABCB11 mRNA, dose titration (human ABCB11 mRNA [1]; PHHs) | expression of CYP7A1 mRNA, dose response (CYP7A1 mRNA) | also measured
1 | CO-4513: ASO targeting a downstream regRNA from enhancer RR62_v2 (antisense eG*eT*eG*eA*eG*eG*e[5mC]*eA*eT*e[5mC]*eA*eG*eG*eT*eA*eA*eG*eT*eT*e[5mC]) | dose-responsive increase | 1.122 fold change | dose-responsive increases |  |  | 
2 | CO-3986: ASO targeting paRNA RR63 of human ABCB11 (antisense eT*eG*eT*eT*eT*eT*eG*e[5mC]*eT*eT*eG*eG*eT*e[5mC]*eA*eA*eG*eA*eG*eG) |  | 1.27 fold change |  | dose-dependent increase | increased expression of CYP7A1 mRNA in a dose-dependent manner | liver bile acid efflux (bile acids; first study, liver-humanized FRG knockout mice): increased efflux of bile acid; ratio of liver bile acid (BA) to serum BA (bile acids; first study, liver-humanized FRG knockout mice (FIG. 9B)): decreased ratio of liver bile acid (BA) to serum BA; intracellular bile acids (bile acids; first study, liver-humanized FRG knockout mice, ASO-treated mice): lower levels of intracellular bile acids; human ABCB11 expression (human ABCB11 mRNA [2]; first study, SC on Days 0 and 7): increased human ABCB11 expression; ABCB11 expression (duplicate wells, qRT-PCR) (human ABCB11 mRNA [1]; PHHs of the B-CLEAR experiment, dose response (FIG. 7A)): increased ABCB11 expression; upregulation of ABCB11 mRNA (human ABCB11 mRNA [1]; PHHs, Day 3, normalized to untreated PHHs): approximately 1.5 fold; CYP7A1 expression (CYP7A1 mRNA; PHHs of the B-CLEAR experiment (FIG. 7B)): upregulated; intracellular and extracellular bile acid levels (bile acid efflux in PHHs; 5 μM and 10 μM ASO, bile acid efflux assay (FIG. 7C)): reduced intracellular and extracellular bile acid levels; efflux of bile acids from the intracellular compartment to the bile cannuliculi (bile acid efflux in PHHs; B-CLEAR assay): increased
3 | CO-4535: ASO targeting eRNA RR64 (RR64_v2) of human ABCB11 (antisense eT*eG*eG*e[5mC]*eG*eT*eT*eA*eT*eT*eA*eA*eT*eT*e[5mC]*eT*eA*e[5mC]*eA*eG) | dose-responsive increase |  | dose-responsive increases | dose-dependent increase | increased expression of CYP7A1 mRNA in a dose-dependent manner | ABCB11 mRNA, time course (human ABCB11 mRNA [1]; [3]): strong ABCB11 and CYP7A1 mRNA upregulation; CYP7A1 mRNA, time course (CYP7A1 mRNA; [3]): strong ABCB11 and CYP7A1 mRNA upregulation
4 | CO-4556: ASO targeting eRNA RR74 (RR74_v1) of human ABCB11 (antisense eG*eA*eA*eG*eG*eA*e[5mC]*eA*e[5mC]*eA*eA*eT*eT*eT*e[5mC]*eT*eG*eT*eA*eG) | dose-responsive increase |  | dose-responsive increases | dose-dependent increase | increased expression of CYP7A1 mRNA in a dose-dependent manner | 
5 | CO-12367: GalNAc3 conjugate counterpart of CO-11202, dosed SC in liver-humanized mice (antisense eT*eG*eTeT*eT*eT*eG*e[5mC]eT*eT*eG*eG*eTe[5mC]*eA*eA*eG*eAeG*eG-{TEG}) |  |  |  |  |  | serum bile acid levels (bile acids; second study, liver-humanized FRG knockout mice (FIG. 15B)): decrease in serum bile acid levels; human ABCB11 expression (human ABCB11 mRNA [2]; second study, 10 mg/CO-12367 SC on Days 0 and 7): increased human ABCB11 expression; mouse Abcb11 expression (mouse Abcb11 mRNA): without affecting mouse Abcb11 expression
